In patent publication US20030003485A1, “Methods for identifying antigens” (Ludwig Institute for Cancer Research, priority 2001, published 2003):
Ends that are not written are not given here.

Tests used:
Type in all cases: cell-based, mouse
CTL clone B-24 [1] = assay: Cytotoxicity assay (51Cr release) with CTL clone B-24; conditions: peptide pulsed P1.HTR target cells
Protocol: Cytotoxicity assay. Tumor cells were labeled by incubating 2×10^6 cells with 2 MBq of Na2^51CrO4, (New England Nuclear, Boston, Mass.) in 0.3 ml of medium for 90 min at 37° C. under 5% CO2 in air. The cells were washed and used as targets. […] In antibody blocking assays, serially diluted mAb (100 μl) was added to the mixture of effector cells and 10^4 labeled target cells (100 μl). After incubation for 3.5 hr at 37° C. under 5% CO2 in air, the supernatants were removed and their radioactivity was measured. The percentage of specific lysis was calculated by the following equation: (a-b)/(c-b)×100, where a is the radioactivity in the supernatant of target cells mixed with effector cells, b is the radioactivity in the supernatant of target cells incubated alone, and c is the radioactivity in the supernatant after lysis of target cells with 1% NP-40.

CTL clone B-24 [2] = assay: IFNγ ELISPOT assay with CTL clone B-24, peptide-pulsed stimulator cells and antibody blocking; conditions: 5,000 B-24 cells, 10,000 CMS8 stimulator cells pulsed with peptide, 96-well plates
Protocol: ELISPOT assay. […] CTL were incubated with stimulator cells on the coated membrane in 96- or 24-well plates for 18 hr at 37° C. under 5% CO2 in air. After culture, the membranes were thoroughly washed with distilled water and incubated with detection antibody for 90 min at 37° C. The IFNγ spots were developed by alkaline phosphatase-conjugated substrate kit (Bio-Rad, Hercules, Calif.) and counted with a dissecting microscope.

AT-1 CTL [3] = assay: Cytotoxicity assay (4 hr 51Cr release) with AT-1 CTL
Protocol: In FIG. 10A, CMS8 cells were ^51Cr labeled and pulsed with the peptide at different concentrations. Cytotoxicity was determined by 4 hr ^51Cr release assay. Effector to target cell ratio was 10. In FIG. 10B, 1×10^4 AT-1 CTL was stimulated with 1×10^4 CMS8 cells in the presence of the 1.0 μM peptide. IFNγ in the supernatant was measured by ELISA.
Cytotoxicity assay. Tumor cells were labeled by incubating 2×10^6 cells with 2 MBq of Na2^51CrO4 (New England Nuclear, Boston, Mass.) in 0.3 ml of medium for 90 min at 37° C. under a 5% CO2 in air. The cells were washed and used as targets. For peptide sensitization, labeled target cells were incubated with peptides at 37° C. for 30 min […]. In direct assays, 10^4 labeled target cells (100 μl) were incubated with effector cells (100 μl) cells. In antibody blocking assays, serially diluted mAb (100 μl) was added to the mixture of effector cells and 10^4 labeled target cells (100 μl). After incubation for 4 hr at 37° C. under a 5% CO2 in air, the supernatants were removed and their radioactivity was measured. The percentage of specific lysis was calculated by the following equation: (a−b)×100/(c−b), where a is the radioactivity in the supernatant of target cells mixed with effector cells, b is that in the supernatant of target cells incubated alone, and c is that in the supernatant after lysis of target cells with 1% NP-40.

AT-1 CTL [4] = assay: IFNγ ELISA of AT-1 CTL stimulated with transfected or peptide-pulsed CMS8 cells; conditions: 1.0 μM synthetic peptide, 24 hr
Protocol: FIG. 8 depicts deletion mutants and introduction of point mutations in S35. IFNγ production in the supernatant secreted by AT-1 CTL against various constructs was determined by ELISA after culture for 24 hr with transfected CMS8 cells. PCR fragments with deletion were amplified from S35 cDNA and cloned into pCI-neo vector with EcoR I and Sal I sites. Point mutations at nt 699 (A to C) and nt 701 (G to A) in Exp. III were introduced using site-directed mutagenesis kits.
9-mer overlapping peptides were synthesized in the ORF of the third reading frame (“3RF”) of S35. 1×10^4 AT-1 cells were cultured with 1×10^4 CMS8 cells in the presence of 1.0 μM synthetic peptides for 24 hr and IFNγ in the supernatant was measured by ELISA. H-2D^d peptide motifs are shown as XGPXXXXXL (SEQ ID NO: 26) and XGAXXXXXL (SEQ ID NO:27). The synthetic peptides are MERTPIQLGAEAIFRLVLM (SEQ ID NO:15); MERTPIQLG (SEQ ID NO:16); ERTPIQLGA (SEQ ID NO:17); RTPIQLGAE (SEQ ID NO:18); TPIQLGAEA (SEQ ID NO:19); PIQLGAEAI (SEQ ID NO:20); IQLGAEAIF (SEQ ID NO:21); QLGAEAIFR (SEQ ID NO:22); LGAEAIFRL (SEQ ID NO:10); GAEAIFRLV (SEQ ID NO: 23); AEAIFRLVL (SEQ ID NO:24); and EAIFRLVLM (SEQ ID NO:25).
IFNγ ELISA. CTL were stimulated with targets for 18 hr. and IFNγ in the culture supernatant was assayed by the sandwich ELISA. […]

AT-1 CTL [5] = assay: IFNγ ELISPOT assay with AT-1 CTL
Excerpt: Transfection. Recombinant plasmids were purified by Wizard Plus Series 9600™ DNA purification system (Promega, Co., Madison, Wis.) after amplification of bacteria and transfected into 1×10^5 or 1×10^4 cells 24- or 96-well plates, respectively, with plasmid pdl3027 containing the polyoma T antigen (Dailey and Basilico, J. Virol. 54:739-749, 1985) using lipofectamine (GIBCO BRL, Rockville, Md.). After culture for 24 hr, the transfected cells were collected and plated onto anti-IFNγ mAb-coated nitrocellulose membranes in culture plates. AT-1 CTL were then added for ELISPOT assay.
ELISPOT assay. Nitrocellulose disk membranes (14 mm diameter) and 96-well nitrocellulose membrane-based plates (Millipore S4510, Millipore Corp., Bedford, Mass.) were coated with anti-IFNγ mAb (R4-6A2) in 0.05 M bicarbonate buffer (pH 9.6) at 4° C. overnight. After washing, membranes were blocked with RPMI 1640 containing 10% FCS and 50 μM 2-mercaptoethanol for 60 min at 37° C. CTL were incubated with stimulator cells on the coated membrane in 24- or -96well plates for 18 hr at 37° C. under a 5% CO2 in air. […] The IFNγ spots were developed by alkaline phosphatase-conjugated anti-rabbit IgG antibody and substrate kit (Bio-Rad, Hercules, Calif.) and counted with a dissecting microscope.

IPGLPLSL [pRL1a, IPGLPLSL]
cytotoxicity of B-24 against peptide pulsed P1.HTR (CTL clone B-24 [1]): showed cytotoxicity

ISTQNHRALDLVA (listed as Mus musculus) [T2H]
number of IFNγ spots (CTL clone B-24 [2]): no spot

LGAEAIFRL (listed as Mus musculus)
inhibition of Meth A (sv) lysis by AT-1 CTL by peptide pulsed P815 (AT-1 CTL [3]): completely inhibited
peptide concentration at which AT-1 CTL lysis of peptide pulsed CMS8 was detected (AT-1 CTL [3]; 4 hr 51Cr release, effector to target cell ratio 10): 20 to 30 nM
stimulation of AT-1 for IFNγ production by peptide pulsed CMS8 cells (AT-1 CTL [4]): stimulation was observed

LSPFPFDL [p2Ca]
number of IFNγ spots (CTL clone B-24 [2]): no spot

B1: S35: cDNA clone, 937 bp long, from Meth A (sv) cDNA library, coding for antigen recognized by AT-1 (nucleic acid, listed as Mus musculus)
DNA: TTAAAAGGGAGATGGAAAGGACTCCAATCCAATTAGGGGCAGAAGCTATCTTTAGACTAGTACTAATGTGGTGAGTATCCTGCCTCACTTAACATCCTTAACCTAGCCTGTGCTTCAGGGAAAGGAAACAAAAGATAGATATATAAAGGCTATTTACTCTGCAAGCCAAACCAAAATTTTGGTACAGAAAATGACAAAGTTTCTTTTTCTCAATAGTAGGAATGTTCTGTGTTCCTAGCCAAAAATTTGTCATCAGTGTCCCTGTGGCTCCCATCTGTCTTTCCTGACCCCCATGATTACTTTTCACTGACAATATAAATCTTAAAAAGCTTTGAGACCAGTGTGCTGATCTAGTTTTTTAAGTTTTGGGTTTTGTTGTTGTGTTTTGGTTTTGGTGTTTTTACGTTTTATTGACTTACAAGCTTTCACTATGTATCCCAGACTGGCTTTGAACTCAGGACCTTCCTGCCTTAGTCTCCCAGGTGCTGAGATTGTGGGGCTGTGTCACTATATTACAACTAATATTTATCAGAAAAATGTTCCTTTTTTGGAAGAAAATGAAGAAAGTGCTGTTTTTGCACTTATCAATTGAGGGGCTGATTTTGATTCGCTCAAGAAAATAGCAGTTTTAACCTAGACATTTGCTGTGGGGACTTGGAACTTTAACTTGGGGTGTCGCTAACTCTACGCTTTCTTCTAGGTCACCATTACTCCCAGCTCCATGAGGAAGATATGTACATACTTTCGTAGAAAGACTCAAGATGACTTCTGCAGTCCTGAACACTCAACTGAATTATAGATGCTAATCTGAAGTTCATTGAACTTGGGTCTACAAAGATTTTTTAAAAAGGCTTTAAAATTCTGGTCTTTAAGAAAATGGTCATCTTTTCATTTTGGAAAAAGTCCTTCTACTCTTTAGCAGACCTAGTCAGGCCCC
stimulation of AT-1 by cells transfected with cDNA clone (AT-1 CTL [5]; CMS5a, CMS8 and CMS13, or H-2D^d-transfected L cells): stimulated
stimulation of AT-1 by cells transfected with cDNA clone (AT-1 CTL [5]; H-2L^d-transfected L cells): not
